Results as given in ChEMBL document CHEMBL3885881, “DrugMatrix”.

Species on record: Rattus norvegicus
Experiment: DrugMatrix - Regimen: Daily Repeat
Format: toxicity, organism-based, Sprague-Dawley
Design: regimen Daily Repeat, gender Male, age 6-8 weeks
Details: in vivo, po, route oral GAVAGE, vehicle 100 % WATER; for BASOPHIL / EOSINOPHIL / ERYTHROCYTE COUNT / HEMATOCRIT / HEMOGLOBIN / LEUKOCYTE COUNT / LYMPHOCYTE / MEAN CORPUSCULAR HEMOGLOBIN / MEAN CORPUSCULAR HEMOGLOBIN CONCENTRATION / MEAN CORPUSCULAR VOLUME / MONOCYTE / NEUTROPHIL / PLATELET COUNT: tissue Blood; for ALANINE AMINOTRANSFERASE / ALBUMIN / ALKALINE PHOSPHATASE / ASPARTATE AMINOTRANSFERASE / BLOOD UREA NITROGEN / CHLORIDE / CHOLESTEROL / CREATINE PHOSPHOKINASE / CREATININE / GLUCOSE / PHOSPHORUS / POTASSIUM / SODIUM / TOTAL BILIRUBIN / TOTAL PROTEIN: tissue Plasma
[1] = 0 mg/kg, 72 h, dose level Control, time 3 day
[2] = 0 mg/kg, 120 h, dose level Control, time 5 day
[3] = 53.5 mg/kg, 72 h, dose level Low, time 3 day
[4] = 53.5 mg/kg, 120 h, dose level Low, time 5 day
[5] = 535 mg/kg, 72 h, dose level High, time 3 day
[6] = 535 mg/kg, 120 h, dose level High, time 5 day

CN1C(=O)OC(C)(C)C1=O [TRIMETHADIONE]
BASOPHIL [1]: 0%
EOSINOPHIL [1]: 0.5%
ERYTHROCYTE COUNT [1]: 5.8 x10E6/uL
HEMATOCRIT [1]: 35.07%
HEMOGLOBIN [1]: 14.12 G/DL
LEUKOCYTE COUNT [1]: 13.7 x10E3/uL
LYMPHOCYTE [1]: 82.33%
MEAN CORPUSCULAR HEMOGLOBIN [1]: 24.38 pg
MEAN CORPUSCULAR HEMOGLOBIN CONCENTRATION [1]: 40.28 G/DL
MEAN CORPUSCULAR VOLUME [1]: 60.52 fL
MONOCYTE [1]: 2.67%
NEUTROPHIL [1]: 14.5%
PLATELET COUNT [1]: 911.5 x10E3/uL
ALANINE AMINOTRANSFERASE [1]: 36.83 u/L
ALBUMIN [1]: 3.75 G/DL
ALKALINE PHOSPHATASE [1]: 399.83 u/L
ASPARTATE AMINOTRANSFERASE [1]: 66 u/L
BLOOD UREA NITROGEN [1]: 14.67 mg/dL
CHLORIDE [1]: 101.67 MEQ/L
CHOLESTEROL [1]: 66.33 mg/dL
CREATINE PHOSPHOKINASE [1]: 139.5 u/L
CREATININE [1]: 0.92 mg/dL
GLUCOSE [1]: 175 mg/dL
PHOSPHORUS [1]: 11.42 mg/dL
POTASSIUM [1]: 7.03 MEQ/L
SODIUM [1]: 148.5 MEQ/L
TOTAL BILIRUBIN [1]: 1.13 mg/dL
TOTAL PROTEIN [1]: 6.87 G/DL
BASOPHIL [2]: 0%
EOSINOPHIL [2]: 0.2%
ERYTHROCYTE COUNT [2]: 6.02 x10E6/uL
HEMATOCRIT [2]: 36.48%
HEMOGLOBIN [2]: 14.38 G/DL
LEUKOCYTE COUNT [2]: 12.34 x10E3/uL
LYMPHOCYTE [2]: 83%
MEAN CORPUSCULAR HEMOGLOBIN [2]: 23.92 pg
MEAN CORPUSCULAR HEMOGLOBIN CONCENTRATION [2]: 39.44 G/DL
MEAN CORPUSCULAR VOLUME [2]: 60.66 fL
MONOCYTE [2]: 3%
NEUTROPHIL [2]: 13.8%
PLATELET COUNT [2]: 1190.6 x10E3/uL
ALANINE AMINOTRANSFERASE [2]: 43 u/L
ALBUMIN [2]: 3.73 G/DL
ALKALINE PHOSPHATASE [2]: 393 u/L
ASPARTATE AMINOTRANSFERASE [2]: 62.33 u/L
BLOOD UREA NITROGEN [2]: 16.33 mg/dL
CHLORIDE [2]: 101.67 MEQ/L
CHOLESTEROL [2]: 65.5 mg/dL
CREATINE PHOSPHOKINASE [2]: 130.67 u/L
CREATININE [2]: 0.58 mg/dL
GLUCOSE [2]: 180.67 mg/dL
PHOSPHORUS [2]: 11.28 mg/dL
POTASSIUM [2]: 7.05 MEQ/L
SODIUM [2]: 148.17 MEQ/L
TOTAL BILIRUBIN [2]: 0.72 mg/dL
TOTAL PROTEIN [2]: 6.83 G/DL
BASOPHIL [3]: 0%
EOSINOPHIL [3]: 0.5%
ERYTHROCYTE COUNT [3]: 6.33 x10E6/uL
HEMATOCRIT [3]: 38.05%
HEMOGLOBIN [3]: 15.05 G/DL
LEUKOCYTE COUNT [3]: 12.85 x10E3/uL
LYMPHOCYTE [3]: 83.5%
MEAN CORPUSCULAR HEMOGLOBIN [3]: 23.8 pg
MEAN CORPUSCULAR HEMOGLOBIN CONCENTRATION [3]: 39.55 G/DL
MEAN CORPUSCULAR VOLUME [3]: 60.15 fL
MONOCYTE [3]: 3.5%
NEUTROPHIL [3]: 12.5%
PLATELET COUNT [3]: 1304.5 x10E3/uL
ALANINE AMINOTRANSFERASE [3]: 36.5 u/L
ALBUMIN [3]: 3.7 G/DL
ALKALINE PHOSPHATASE [3]: 313 u/L
ASPARTATE AMINOTRANSFERASE [3]: 61.5 u/L
BLOOD UREA NITROGEN [3]: 12 mg/dL
CHLORIDE [3]: 101 MEQ/L
CHOLESTEROL [3]: 59 mg/dL
CREATINE PHOSPHOKINASE [3]: 136 u/L
CREATININE [3]: 0.55 mg/dL
GLUCOSE [3]: 210.5 mg/dL
PHOSPHORUS [3]: 13 mg/dL
POTASSIUM [3]: 6.85 MEQ/L
SODIUM [3]: 151 MEQ/L
TOTAL BILIRUBIN [3]: 0.35 mg/dL
TOTAL PROTEIN [3]: 6.65 G/DL
BASOPHIL [4]: 0%
EOSINOPHIL [4]: 0%
ERYTHROCYTE COUNT [4]: 6.06 x10E6/uL
HEMATOCRIT [4]: 36.17%
HEMOGLOBIN [4]: 14.4 G/DL
LEUKOCYTE COUNT [4]: 18.23 x10E3/uL
LYMPHOCYTE [4]: 83.33%
MEAN CORPUSCULAR HEMOGLOBIN [4]: 23.8 pg
MEAN CORPUSCULAR HEMOGLOBIN CONCENTRATION [4]: 39.83 G/DL
MEAN CORPUSCULAR VOLUME [4]: 59.7 fL
MONOCYTE [4]: 2.33%
NEUTROPHIL [4]: 14.33%
PLATELET COUNT [4]: 1288 x10E3/uL
ALANINE AMINOTRANSFERASE [4]: 36.67 u/L
ALBUMIN [4]: 3.57 G/DL
ALKALINE PHOSPHATASE [4]: 314 u/L
ASPARTATE AMINOTRANSFERASE [4]: 59 u/L
BLOOD UREA NITROGEN [4]: 12 mg/dL
CHLORIDE [4]: 102.33 MEQ/L
CHOLESTEROL [4]: 70.67 mg/dL
CREATINE PHOSPHOKINASE [4]: 109.33 u/L
CREATININE [4]: 0.6 mg/dL
GLUCOSE [4]: 190.67 mg/dL
PHOSPHORUS [4]: 13.13 mg/dL
POTASSIUM [4]: 6.6 MEQ/L
SODIUM [4]: 151.33 MEQ/L
TOTAL BILIRUBIN [4]: 0.3 mg/dL
TOTAL PROTEIN [4]: 6.5 G/DL
BASOPHIL [5]: 0%
EOSINOPHIL [5]: 0%
ERYTHROCYTE COUNT [5]: 6.23 x10E6/uL
HEMATOCRIT [5]: 37.4%
HEMOGLOBIN [5]: 14.63 G/DL
LEUKOCYTE COUNT [5]: 13.2 x10E3/uL
LYMPHOCYTE [5]: 82.67%
MEAN CORPUSCULAR HEMOGLOBIN [5]: 23.5 pg
MEAN CORPUSCULAR HEMOGLOBIN CONCENTRATION [5]: 39.13 G/DL
MEAN CORPUSCULAR VOLUME [5]: 60 fL
MONOCYTE [5]: 5.67%
NEUTROPHIL [5]: 11.67%
PLATELET COUNT [5]: 1178.33 x10E3/uL
ALANINE AMINOTRANSFERASE [5]: 42.67 u/L
ALBUMIN [5]: 3.63 G/DL
ALKALINE PHOSPHATASE [5]: 285 u/L
ASPARTATE AMINOTRANSFERASE [5]: 71 u/L
BLOOD UREA NITROGEN [5]: 12.67 mg/dL
CHLORIDE [5]: 98.33 MEQ/L
CHOLESTEROL [5]: 72 mg/dL
CREATINE PHOSPHOKINASE [5]: 136.33 u/L
CREATININE [5]: 0.57 mg/dL
GLUCOSE [5]: 181.33 mg/dL
PHOSPHORUS [5]: 12.93 mg/dL
POTASSIUM [5]: 6.83 MEQ/L
SODIUM [5]: 152 MEQ/L
TOTAL BILIRUBIN [5]: 0.27 mg/dL
BASOPHIL [6]: 0%
EOSINOPHIL [6]: 0.33%
ERYTHROCYTE COUNT [6]: 5.77 x10E6/uL
HEMATOCRIT [6]: 33.97%
HEMOGLOBIN [6]: 13.13 G/DL
LEUKOCYTE COUNT [6]: 10.67 x10E3/uL
LYMPHOCYTE [6]: 78.67%
MEAN CORPUSCULAR HEMOGLOBIN [6]: 22.8 pg
MEAN CORPUSCULAR HEMOGLOBIN CONCENTRATION [6]: 38.67 G/DL
MEAN CORPUSCULAR VOLUME [6]: 58.97 fL
MONOCYTE [6]: 2.67%
NEUTROPHIL [6]: 18.33%
PLATELET COUNT [6]: 1123.33 x10E3/uL
ALANINE AMINOTRANSFERASE [6]: 42 u/L
ALBUMIN [6]: 3.67 G/DL
ALKALINE PHOSPHATASE [6]: 272.33 u/L
ASPARTATE AMINOTRANSFERASE [6]: 78.33 u/L
BLOOD UREA NITROGEN [6]: 14.67 mg/dL
CHLORIDE [6]: 99.33 MEQ/L
CHOLESTEROL [6]: 74.33 mg/dL
CREATINE PHOSPHOKINASE [6]: 143.67 u/L
CREATININE [6]: 0.57 mg/dL
GLUCOSE [6]: 180.33 mg/dL
PHOSPHORUS [6]: 13.1 mg/dL
POTASSIUM [6]: 6.6 MEQ/L
SODIUM [6]: 153.33 MEQ/L
TOTAL BILIRUBIN [6]: 0.27 mg/dL
TOTAL PROTEIN [6]: 6.53 G/DL
